In ChEMBL document CHEMBL1201862, “PubChem BioAssay data set” (2004):
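Grown in 96-well plates, cells were treated for 48 hours with each compound at five concentrations. Insufficient inhibition: endpoint recorded as highest concentration tested. GI50 = concentration required for 50% inhibition of growth.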 Calls of active or inactive are those of the source. No stated cut-off is given here; in the data, active = GI50 up to about 1.1 µM and inactive = higher.

Tests used:
Experiment in all cases: inhibition of tumour cell growth, NCI panel, 48 h
[1] = system: 786-0
[2] = system: A498
[3] = system: A549
[4] = system: ACHN
[5] = system: CCRF-CEM
[6] = system: COLO 205
[7] = system: DLD-1
[8] = system: DMS-114
[9] = system: DMS-273
[10] = system: EKVX
[11] = system: HCC 2998
[12] = system: HCT-15
[13] = system: HL-60
[14] = system: HOP-62
[15] = system: HOP-92
[16] = system: HT-29
[17] = system: IGROV-1
[18] = system: K562
[19] = system: KM-20L2
[20] = system: KM12
[21] = system: M14
[22] = system: M19-MEL
[23] = system: MOLT-4
[24] = system: Malme-3M
[25] = system: NCI-H226
[26] = system: NCI-H23
[27] = system: NCI-H460
[28] = system: NCI-H522
[29] = system: OVCAR-3
[30] = system: OVCAR-4
[31] = system: OVCAR-5
[32] = system: OVCAR-8
[33] = system: RPMI-8226
[34] = system: RXF 393
[35] = system: RXF 631
[36] = system: SF-268
[37] = system: SF-295
[38] = system: SF-539
[39] = system: SK-MEL-28
[40] = system: SK-MEL-2
[41] = system: SK-MEL-5
[42] = system: SK-OV-3
[43] = system: SN12C
[44] = system: SNB-19
[45] = system: SNB-75
[46] = system: SNB-78
[47] = system: SR
[48] = system: TK-10
[49] = system: U-251
[50] = system: UACC-257
[51] = system: UACC-62
[52] = system: UO-31
[53] = system: CAKI-1
[54] = system: HCT-116
[55] = system: HOP-18
[56] = system: LXFL 529
[57] = system: SW-620
[58] = system: XF498
[59] = system: LOX IMVI

Measured: GI50

O=C1CCCC2COc3ccc(O)c1c32 (stereo not drawn)
inactive: [1] > 100 µM | [2] > 100 µM | [3] > 100 µM | [4] > 100 µM | [5] > 100 µM | [6] > 100 µM | [7] > 100 µM | [8] > 100 µM | [9] > 100 µM | [10] > 100 µM | [11] > 100 µM | [13] > 100 µM | [14] > 100 µM | [15] > 100 µM | [16] > 100 µM | [17] > 100 µM | [18] > 100 µM | [19] > 100 µM | [20] > 100 µM | [21] > 100 µM | [22] > 100 µM | [23] > 100 µM | [24] > 100 µM | [25] > 100 µM | [26] > 100 µM | [27] > 100 µM | [28] > 100 µM | [29] > 100 µM | [30] > 100 µM | [31] > 100 µM | [32] > 100 µM | [33] > 100 µM | [34] > 100 µM | [35] > 100 µM | [36] > 100 µM | [37] > 100 µM | [38] > 100 µM | [39] > 100 µM | [40] > 100 µM | [41] > 100 µM | [42] > 100 µM | [43] > 100 µM | [44] > 100 µM | [45] > 100 µM | [46] > 100 µM | [47] > 100 µM | [48] > 100 µM | [49] > 100 µM | [50] > 100 µM | [51] > 100 µM | [52] > 100 µM
> 100 µM: [12]

O/N=C1/C(=C/c2ccc(Cl)c(Cl)c2)CCCC1C(NO)c1ccc(Cl)c(Cl)c1 (stereo not drawn)
inactive: [1] 19.5 µM | [2] 14.4 µM | [3] 17.2 µM | [4] 18.4 µM | [53] 18.8 µM | [5] 17.2 µM | [6] 18.3 µM | [7] 16.9 µM | [8] 17.9 µM | [9] 18.8 µM | [10] 21.9 µM | [11] 17.1 µM | [54] 16.2 µM | [13] 17.6 µM | [55] 16.3 µM | [14] 20.1 µM | [16] 16.7 µM | [17] 19.9 µM | [18] 21.3 µM | [19] 17.9 µM | [20] 18 µM | [56] 15.7 µM | [21] 17.4 µM | [22] 18.2 µM | [23] 12.5 µM | [24] 20 µM | [26] 17.3 µM | [27] 21.1 µM | [28] 10.1 µM | [29] 14.7 µM | [30] 12.9 µM | [32] 18.7 µM | [33] 17.1 µM | [34] 19.7 µM | [36] 23.5 µM | [38] 18.1 µM | [39] 17.9 µM | [40] 17.4 µM | [41] 18.5 µM | [42] 20.4 µM | [43] 17.8 µM | [44] 17.6 µM | [45] 16.6 µM | [46] 18.7 µM | [57] 17.9 µM | [48] 19.8 µM | [49] 17.9 µM | [50] 18.7 µM | [51] 18 µM | [52] 18.7 µM | [58] 16.3 µM
16.8 µM: [12]

Cc1ncc(CCl)c(CCl)c1O
inactive: [1] > 100 µM | [2] > 100 µM | [4] > 100 µM | [53] > 100 µM | [5] > 100 µM | [6] > 100 µM | [7] > 100 µM | [8] > 100 µM | [9] > 100 µM | [11] > 100 µM | [54] > 100 µM | [13] > 100 µM | [14] > 100 µM | [15] > 100 µM | [17] > 100 µM | [18] > 100 µM | [56] > 100 µM | [21] > 100 µM | [22] > 100 µM | [23] > 100 µM | [24] > 100 µM | [25] > 100 µM | [26] > 100 µM | [28] > 100 µM | [30] > 100 µM | [33] > 100 µM | [35] > 100 µM | [36] > 100 µM | [38] > 100 µM | [39] > 100 µM | [40] > 100 µM | [42] > 100 µM | [43] > 100 µM | [45] > 100 µM | [47] > 100 µM | [51] > 100 µM | [52] > 100 µM | [58] > 100 µM

O=C1c2ccccc2CC1C1(O)C(=O)Nc2ccccc21 (stereo not drawn)
> 100 µM: [12]
inactive: [1] > 100 µM | [2] > 100 µM | [3] > 100 µM | [4] > 100 µM | [53] > 100 µM | [6] > 100 µM | [7] > 100 µM | [8] > 100 µM | [9] > 100 µM | [10] > 100 µM | [54] > 100 µM | [13] > 100 µM | [14] > 100 µM | [15] > 100 µM | [16] > 100 µM | [17] > 100 µM | [18] > 100 µM | [19] > 100 µM | [59] > 100 µM | [56] > 100 µM | [21] > 100 µM | [22] > 100 µM | [23] > 100 µM | [24] > 100 µM | [25] > 100 µM | [26] > 100 µM | [27] > 100 µM | [28] > 100 µM | [29] > 100 µM | [30] > 100 µM | [31] > 100 µM | [32] > 100 µM | [33] > 100 µM | [34] > 100 µM | [35] > 100 µM | [36] > 100 µM | [37] > 100 µM | [38] > 100 µM | [39] > 100 µM | [40] > 100 µM | [41] > 100 µM | [42] > 100 µM | [43] > 100 µM | [44] > 100 µM | [45] 87.3 µM | [46] > 100 µM | [57] > 100 µM | [48] > 100 µM | [50] > 100 µM | [51] > 100 µM | [52] 34.6 µM | [58] 55.6 µM

COC1=C(C)C(=O)C2C(C1=O)C(c1ccc(OC)c(OC)c1)[C@H]2C (stereo partly drawn)
> 100 µM: [12]
inactive: [1] > 100 µM | [2] > 100 µM | [3] > 100 µM | [4] > 100 µM | [53] > 100 µM | [5] > 100 µM | [6] > 100 µM | [7] > 100 µM | [9] > 100 µM | [10] > 100 µM | [11] > 100 µM | [13] > 100 µM | [14] > 100 µM | [15] > 100 µM | [16] > 100 µM | [17] > 100 µM | [18] > 100 µM | [20] > 100 µM | [59] > 100 µM | [56] > 100 µM | [21] > 100 µM | [22] > 100 µM | [23] > 100 µM | [24] > 100 µM | [25] > 100 µM | [26] > 100 µM | [27] > 100 µM | [28] > 100 µM | [29] > 100 µM | [30] > 100 µM | [31] > 100 µM | [32] > 100 µM | [33] > 100 µM | [34] > 100 µM | [35] > 100 µM | [36] > 100 µM | [37] > 100 µM | [38] > 100 µM | [39] > 100 µM | [40] > 100 µM | [41] > 100 µM | [42] > 100 µM | [44] > 100 µM | [45] 72.8 µM | [46] > 100 µM | [47] > 100 µM | [57] > 100 µM | [48] > 100 µM | [49] > 100 µM | [51] > 100 µM | [52] 61.1 µM | [58] > 100 µM
